Laboratory results: BindingDB's records for doi:10.7270/Q2ZC817P (The Scripps Research Institute Molecular Screening Center, 2007)
Structures can show the parent of a compound that is named as a salt.

What follows are compounds tested against Sphingosine 1-phosphate receptor 1 (Homo sapiens, UniProt P21453) (assay: S1P1 agonism potentiation – cell-based, potentiator mode, 60K MLSMR set, dose response (AID 466)). Conditions: not given.
Sphingosine 1-phosphate receptor 1, sequence (P21453 whole entry): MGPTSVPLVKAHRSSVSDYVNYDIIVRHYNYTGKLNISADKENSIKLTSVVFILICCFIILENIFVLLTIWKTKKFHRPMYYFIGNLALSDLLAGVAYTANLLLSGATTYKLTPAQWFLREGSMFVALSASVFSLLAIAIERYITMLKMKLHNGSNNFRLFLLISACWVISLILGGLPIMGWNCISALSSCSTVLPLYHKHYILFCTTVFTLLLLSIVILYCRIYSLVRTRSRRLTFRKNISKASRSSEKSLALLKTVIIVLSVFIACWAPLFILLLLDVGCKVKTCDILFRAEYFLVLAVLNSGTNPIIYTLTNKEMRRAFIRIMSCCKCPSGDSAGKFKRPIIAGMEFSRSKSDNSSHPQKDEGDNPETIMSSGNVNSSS
`O=C(CSc1nnc(Cc2csc(Nc3cccc(Cl)c3)n2)o1)N1CCc2ccccc21` [2-[[5-[[2-(3-chloroanilino)-1,3-thiazol-4-yl]methyl]-1,3,4-oxadiazol-2-yl]sulfanyl]-1-(2,3-dihydroindol-1-yl)ethanone] showed an EC50 of over 95 µM. In the case of `CCOc1ccc(S(=O)(=O)N2CCN(c3ccc(C)cc3C)CC2)cc1` [1-(2,4-dimethylphenyl)-4-(4-ethoxyphenyl)sulfonyl-piperazine], the EC50 is reported as over 95 µM. `Oc1ccc(C2NCc3ccccc3-n3cccc32)cc1Cl` (stereo not drawn) [2-chloranyl-4-(5,6-dihydro-4H-pyrrolo[1,2-a][1,4]benzodiazepin-4-yl)phenol;hydrochloride] gave an EC50 of 2.83 µM. With `OCC12C=CC(O1)c1c2c(O)n(-c2ccccc2-c2ccccc2)c1O` (stereo not drawn) [7-(hydroxymethyl)-2-(2-phenylphenyl)-4,7a-dihydro-3aH-octahydro-1H-4,7-epoxyisoindole-1,3-dione] the EC50 was 6.82 µM. Work on `C=CS(=O)(=O)c1ccc(Oc2ccc(S(=O)(=O)C=C)cc2)cc1` [1-ethenylsulfonyl-4-(4-ethenylsulfonylphenoxy)benzene] yielded an EC50 of 3.31 µM. For `O=c1c(-c2ccc3c(c2)OCCO3)c(C(F)(F)F)oc2cc(O)cc(O)c12` [3-(2,3-dihydro-1,4-benzodioxin-6-yl)-5,7-bis(oxidanyl)-2-(trifluoromethyl)chromen-4-one], the EC50 was 3.83 µM. Compound `Cc1noc(C)c1S(=O)(=O)N(CC(=O)Nc1ccc2c(c1)OCO2)c1ccc(C(C)C)cc1` [MLS000117405] has an EC50 of over 95 µM. `COc1ccc(-n2c(O)cc(Sc3nnc[nH]3)c2O)c(OC)c1` [1-(2,4-dimethoxyphenyl)-3-(1H-1,2,4-triazol-5-ylthio)pyrrolidine-2,5-dione] gave an EC50 of 16.4 µM. With `Cc1ccc(OCc2nc(-c3ccccc3)no2)c(C)c1` [5-[(2,4-dimethylphenoxy)methyl]-3-phenyl-1,2,4-oxadiazole] the EC50 was 1.96 µM. `Cc1occc1C(=O)N1CCN(c2ccc(Cl)c(Cl)c2)CC1` [1-(3,4-dichlorophenyl)-4-(2-methyl-3-furoyl)piperazine] was tested, and the EC50 was 5.18 µM. `COCC(=O)Nc1cccc(C(F)(F)F)c1` [2-methoxy-N-[3-(trifluoromethyl)phenyl]acetamide] was tested, and the EC50 was over 95 µM. `Cc1nc2sccn2c1-c1csc(NCc2ccccc2)n1` [4-(6-methyl-5-imidazo[2,1-b]thiazolyl)-N-(phenylmethyl)-2-thiazolamine] showed an EC50 of 3.6 µM. `CC(=O)Oc1ccc(-n2c(O)c3c(c2O)C2(C)C=CC3(C)O2)cc1` [MLS000107813] showed an EC50 of 13.4 µM. Work on `Cn1ncnc2c(=O)n(C)c(=O)nc1-2` yielded an EC50 of 1.73 µM. Work on `Cc1cc(C=Nn2cnnc2)c(C)n1-c1ccc(OCc2ccccc2F)cc1` [MLS000112180] yielded an EC50 of 0.803 µM. With `COc1ccccc1OCc1nc(C#N)c(N2CC(C)CC(C)C2)o1` (stereo not drawn) [5-(3,5-dimethyl-1-piperidinyl)-2-[(2-methoxyphenoxy)methyl]-4-oxazolecarbonitrile] the EC50 was 2.55 µM. Compound `CCOc1ccc(S(=O)(=O)n2cnc3cc(C)c(C)cc32)cc1` [1-(4-Ethoxy-benzenesulfonyl)-5,6-dimethyl-1H-benzoimidazole] has an EC50 of 8.29 µM. Compound `Cc1cc(C(=O)CSc2nnc(-c3ccco3)o2)c(C)n1-c1ccc2c(c1)OCCO2` [1-[1-(2,3-dihydro-1,4-benzodioxin-6-yl)-2,5-dimethyl-3-pyrrolyl]-2-[[5-(2-furanyl)-1,3,4-oxadiazol-2-yl]thio]ethanone] has an EC50 of 9.32 µM. `COc1ccc(S(=O)(=O)N2CCN(c3ccc(C)cc3C)CC2)cc1OC` [1-(3,4-dimethoxyphenyl)sulfonyl-4-(2,4-dimethylphenyl)piperazine] gave an EC50 of 7.77 µM. With `CC(=N)C(C#N)C(=O)CSc1nc2cc(Cl)ccc2s1` (stereo not drawn) [(E)-3-amino-2-[2-[(5-chloro-1,3-benzothiazol-2-yl)sulfanyl]acetyl]but-2-enenitrile] the EC50 was 11.1 µM. In the case of `Cc1nnc2ccc(Oc3ccc(-c4ccccc4)cc3)nn12` [3-methyl-6-(4-phenylphenoxy)-[1,2,4]triazolo[4,3-b]pyridazine], the EC50 is reported as 5.31 µM. In the case of `Clc1ccc(OCc2nc(-c3ccncc3)no2)c(Br)c1` [5-[(2-bromanyl-4-chloranyl-phenoxy)methyl]-3-pyridin-4-yl-1,2,4-oxadiazole], the EC50 is reported as 3.45 µM. `O=C(Nc1cccc(C(F)(F)F)c1)N1CCC(c2nc(-c3ccc(F)cc3)no2)CC1` [4-[3-(4-Fluoro-phenyl)-[1,2,4]oxadiazol-5-yl]-piperidine-1-carboxylic acid (3-trifluoromethyl-phenyl)-amide] showed an EC50 of 6.42 µM.

Same assay, conditions: inactive by the depositor's call
`O=C(c1cc(-c2ccccc2)on1)N1CCN(Cc2ccc3c(c2)OCO3)CC1` [(5-phenylisoxazol-3-yl)-(4-piperonylpiperazino)methanone] gave an EC50 of 58.7 µM. For `CCc1ccc(N(CC)c2ncnc3nc[nH]c23)cc1`, the EC50 was 14.7 µM. Compound `CCCOc1ccc(S(=O)(=O)NCc2ccc(OC)cc2)cc1` [MLS000104592] has an EC50 of 19.8 µM. With `C=CCn1c(C)cc(C(=O)CSc2nc3ccccc3o2)c1C` [1-(1-allyl-2,5-dimethyl-pyrrol-3-yl)-2-(1,3-benzoxazol-2-ylthio)ethanone] the EC50 was 10.3 µM. `Cc1ccc(S(=O)(=O)Nc2ccc3ncccc3c2)cc1` [4-methyl-N-(6-quinolinyl)benzenesulfonamide] was tested, and the EC50 was 10.7 µM. In the case of `CCC(C)OC(=O)c1[nH]c2c(c1C)C(=O)CC(c1ccc(N(C)C)cc1)C2` (stereo not drawn) [MLS000116530], the EC50 is reported as 18 µM. `CN1c2ccccc2C(C)(C)C12C=Cc1cc(O)ccc1O2` (stereo not drawn) [1',3',3'-trimethyl-6-spiro[1-benzopyran-2,2'-indole]ol] gave an EC50 of 12.3 µM. In the case of `CCSc1nc(N2CCOCC2)c2c(c1C#N)CCCC2` [3-(ethylthio)-1-(4-morpholinyl)-5,6,7,8-tetrahydroisoquinoline-4-carbonitrile], the EC50 is reported as 30.9 µM. `c1ccc(CSc2nnc(-c3cccs3)o2)cc1` [2-(benzylthio)-5-(2-thienyl)-1,3,4-oxadiazole] showed an EC50 of 20.4 µM. With `O=c1oc2cc(Br)ccc2n1CSC1=NCCS1` [6-Bromo-3-(4,5-dihydro-thiazol-2-ylsulfanylmethyl)-3H-benzooxazol-2-one] the EC50 was 17.6 µM.
